# Earlier results as cited in patent US20060189550A1, “Immunostimulatory, Covalently lipidated oligonucleotides” (Biomira Inc., priority 2002, published 2006).
# Settings: Table K-2, reference compounds; experimental database value from LogKow
smiles,measurement,value
"CCSC [Ethane, (methylthio)-]",LogP Exp,1.54
CCCCOC [methyl n-butyl ether],LogP Exp,1.66
O=c1ccc2cc3ccoc3cc2o1 [psoralen],LogP Exp,1.67
Cc1c[nH]c2ccccc12 [3-methyl indole],LogP Exp,2.60
